Measurements as given in patent US20250090540A1, “PI3K-ALPHA INHIBITORS AND METHODS OF USE THEREOF” (Relay Therapeutics, Inc., priority 2021, published 2025).
Read-outs that look alike come from different tables or passages of the source.

Assays:
H1047R PIK3CA enzyme = H1047R PIK3CA enzyme (Homo sapiens, UniProt P42336, H1047R); assay: ADP-Glo Biochemical PIK3CA Kinase Assay
cells = settings: Homo sapiens, MCF-10A, read-out: MCF10A I50
[1] = ADP-Glo biochemical PIK3CA kinase assay

H1047R PIK3CA enzyme, sequence (P42336 whole entry H1047R): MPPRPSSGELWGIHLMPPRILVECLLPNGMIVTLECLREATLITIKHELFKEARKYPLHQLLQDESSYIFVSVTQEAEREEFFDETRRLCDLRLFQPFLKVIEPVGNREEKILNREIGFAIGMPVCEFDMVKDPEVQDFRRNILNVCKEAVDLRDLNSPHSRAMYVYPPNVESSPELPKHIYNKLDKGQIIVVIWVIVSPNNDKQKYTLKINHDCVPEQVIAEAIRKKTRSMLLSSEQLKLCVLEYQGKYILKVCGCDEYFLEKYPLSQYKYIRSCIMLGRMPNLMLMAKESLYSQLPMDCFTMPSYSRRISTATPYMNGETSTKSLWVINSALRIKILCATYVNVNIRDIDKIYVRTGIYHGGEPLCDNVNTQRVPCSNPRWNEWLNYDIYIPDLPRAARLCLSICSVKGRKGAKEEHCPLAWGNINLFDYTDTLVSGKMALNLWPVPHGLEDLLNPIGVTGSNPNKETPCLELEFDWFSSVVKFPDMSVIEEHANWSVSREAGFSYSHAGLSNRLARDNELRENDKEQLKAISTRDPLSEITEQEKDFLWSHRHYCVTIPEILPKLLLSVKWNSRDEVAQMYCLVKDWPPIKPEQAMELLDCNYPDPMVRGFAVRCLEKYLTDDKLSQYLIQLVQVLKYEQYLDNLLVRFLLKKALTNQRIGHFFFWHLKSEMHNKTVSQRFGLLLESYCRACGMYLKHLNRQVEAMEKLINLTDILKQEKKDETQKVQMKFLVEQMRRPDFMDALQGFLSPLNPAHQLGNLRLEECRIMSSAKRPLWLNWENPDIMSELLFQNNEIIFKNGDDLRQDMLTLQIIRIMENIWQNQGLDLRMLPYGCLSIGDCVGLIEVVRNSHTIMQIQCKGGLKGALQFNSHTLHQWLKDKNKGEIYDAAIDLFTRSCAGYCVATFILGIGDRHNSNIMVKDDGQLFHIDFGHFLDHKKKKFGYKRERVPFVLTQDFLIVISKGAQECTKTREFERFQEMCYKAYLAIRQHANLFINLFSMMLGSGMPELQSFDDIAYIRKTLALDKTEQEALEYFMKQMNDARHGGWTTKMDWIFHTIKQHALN
H1047R PIK3CA enzyme, sequence (P27986 whole entry partner): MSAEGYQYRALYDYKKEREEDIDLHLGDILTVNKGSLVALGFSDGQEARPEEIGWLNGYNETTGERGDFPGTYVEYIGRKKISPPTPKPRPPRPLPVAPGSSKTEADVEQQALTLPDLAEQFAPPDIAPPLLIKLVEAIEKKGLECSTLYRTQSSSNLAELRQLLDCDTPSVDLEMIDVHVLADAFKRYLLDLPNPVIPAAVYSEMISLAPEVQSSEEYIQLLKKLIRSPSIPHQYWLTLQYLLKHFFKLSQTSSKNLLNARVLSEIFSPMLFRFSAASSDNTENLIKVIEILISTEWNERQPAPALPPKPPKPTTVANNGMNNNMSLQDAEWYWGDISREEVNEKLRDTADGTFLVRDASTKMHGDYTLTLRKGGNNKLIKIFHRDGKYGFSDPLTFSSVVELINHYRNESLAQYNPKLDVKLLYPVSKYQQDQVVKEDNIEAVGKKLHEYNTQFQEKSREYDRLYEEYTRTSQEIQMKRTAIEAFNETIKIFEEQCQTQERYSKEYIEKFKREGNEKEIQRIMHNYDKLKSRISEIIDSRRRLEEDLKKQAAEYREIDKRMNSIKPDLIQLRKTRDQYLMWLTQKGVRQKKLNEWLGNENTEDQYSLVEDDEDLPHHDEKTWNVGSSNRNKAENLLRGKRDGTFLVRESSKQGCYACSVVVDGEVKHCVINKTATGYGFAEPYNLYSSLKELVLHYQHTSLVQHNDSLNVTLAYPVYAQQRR

Compound | IC50 (H1047R PIK3CA enzyme) [nM] | IC50 (cells) [µM] | IC50 (H1047R PIK3CA enzyme; [1]) [nM]
O=C(NC1CS(=O)(=O)C1)c1cnc(N2CCOc3ccccc32)c(NC(=O)c2csc3ccccc23)c1 [I-245] | 100 to 500 | 5 to 10 | 
Cc1ccccc1Nc1ncc(C(=O)NC2CCCS(=O)(=O)C2)cc1NC(=O)c1cc(F)cc(C(F)(F)F)c1 (stereo not shown) [I-246] | 100 to 500 | < 1 | 
Cc1ccccc1Nc1ncc(C(=O)NC2CCS(=O)(=O)C2)cc1NC(=O)c1cc(F)cc(C(F)(F)F)c1 (stereo not shown) [I-247] | 100 to 500 | < 1 | 
Cc1ccccc1Nc1ncc(C(=O)NC2CC(F)(F)C2)cc1NC(=O)c1csc2ccccc12 [I-248] | 100 to 500 | 1 to 5 | 
CNC(=O)c1cnc(Nc2cccc(F)c2Cl)c(NC(=O)c2cc(F)cc(C(F)(F)F)c2)c1 [I-249] | 100 to 500 | 1 to 5 | 
O=C(NC1(c2cccnc2)CC1)c1cnc(N2CCOc3ccccc32)c(NC(=O)c2csc3ccccc23)c1 [I-256] | 100 to 500 | 1 to 5 | 
Cc1ccccc1Nc1ncc(C(=O)NC2CC3(COC3)C2)cc1NC(=O)c1cc(F)cc(C(F)(F)F)c1 [I-267] | 100 to 500 | < 1 | 
Cc1ccccc1Nc1ncc(C(=O)NC2CC(O)C2)cc1NC(=O)c1cc(F)cc(C(F)(F)F)c1 (stereo not shown) [I-274] | 100 to 500 | 1 to 5 | 
Cc1ccccc1Nc1ncc(C(=O)NC2CCC(O)C2)cc1NC(=O)c1cc(F)cc(C(F)(F)F)c1 (stereo not shown) [I-275] | 100 to 500 | 1 to 5 | 
Cc1ccccc1Nc1ncc(C(=O)NC2CCC(O)CC2)cc1NC(=O)c1cc(F)cc(C(F)(F)F)c1 (stereo not shown) [I-276] | 100 to 500 | 1 to 5 | 
Cc1ccccc1Nc1cc(=O)n(Cc2ccccc2C#N)cc1NC(=O)c1csc2ccccc12 [I-279] | 100 to 500 | 10 to 36 | 
CNC(=O)c1cnc(Nc2ccc(F)cc2)c(NC(=O)c2cc(F)cc(C(F)(F)F)c2)c1 [I-285] | 500 to 1000 | 10 to 36 | 
CNC(=O)c1cnc(Nc2cccc(N)c2)c(NC(=O)c2cc(F)cc(C(F)(F)F)c2)c1 [I-286] | 1000 to 10000 | 10 to 36 | 
CNC(=O)c1cnc(Nc2cccc(Cl)c2)c(NC(=O)c2cc(F)cc(C(F)(F)F)c2)c1 [I-287] | 1000 to 10000 | 36 to 100 | 
CCOc1ccccc1Nc1ncc(C(=O)NC)cc1NC(=O)c1cc(F)cc(C(F)(F)F)c1 [I-288] | 10000 to 100000 | 36 to 100 | 
CNC(=O)c1cnc(Nc2cn(C)nc2C)c(NC(=O)c2cc(F)cc(C(F)(F)F)c2)c1 [I-289] | 10000 to 100000 | 36 to 100 | 
CNC(=O)c1cnc(Nc2cccc(Cl)c2C)c(NC(=O)c2cc(F)cc(C(F)(F)F)c2)c1 [I-290] | 1000 to 10000 | 36 to 100 | 
CNC(=O)c1cnc(Nc2ncco2)c(NC(=O)c2cc(F)cc(C(F)(F)F)c2)c1 [I-291] | 10000 to 100000 | 36 to 100 | 
CNC(=O)c1cnc(Nc2cccc(C(F)(F)F)c2)c(NC(=O)c2cc(F)cc(C(F)(F)F)c2)c1 [I-292] | 1000 to 10000 | 10 to 36 | 
CNC(=O)c1cnc(Nc2ccccc2Cl)c(NC(=O)c2cc(F)cc(C(F)(F)F)c2)c1 [I-293] | 100 to 500 | 1 to 5 | 
CNC(=O)c1cnc(Nc2cccc(C)c2Cl)c(NC(=O)c2cc(F)cc(C(F)(F)F)c2)c1 [I-294] | 1000 to 10000 | 36 to 100 | 
CNC(=O)c1cnc(Nc2ccc(C#N)cc2)c(NC(=O)c2cc(F)cc(C(F)(F)F)c2)c1 [I-295] | 1000 to 10000 | 36 to 100 | 
CNC(=O)c1cnc(Nc2cccc(F)c2F)c(NC(=O)c2cc(F)cc(C(F)(F)F)c2)c1 [I-296] | 100 to 500 | 5 to 10 | 

Compound | IC50 (H1047R PIK3CA enzyme) [nM] | IC50 (cells) [µM] | IC50 (H1047R PIK3CA enzyme; [1]) [nM]
CNC(=O)c1cnc(Nc2cccc(C(C)(C)C)c2)c(NC(=O)c2cc(F)cc(C(F)(F)F)c2)c1 [I-297] | 1000 to 10000 | 36 to 100 | 
CNC(=O)c1cnc(Nc2ccccc2C(C)C)c(NC(=O)c2cc(F)cc(C(F)(F)F)c2)c1 [I-298] | 1000 to 10000 | 36 to 100 | 
CNC(=O)c1cnc(Nc2nccs2)c(NC(=O)c2cc(F)cc(C(F)(F)F)c2)c1 [I-299] | 10000 to 100000 | 36 to 100 | 
CNC(=O)c1cnc(Nc2ccccc2F)c(NC(=O)c2cc(F)cc(C(F)(F)F)c2)c1 [I-300] | 1000 to 10000 | 36 to 100 | 
CNC(=O)c1cnc(Nc2nc(C)c(C)s2)c(NC(=O)c2cc(F)cc(C(F)(F)F)c2)c1 [I-301] | 500 to 1000 | 10 to 36 | 
CNC(=O)c1cnc(Nc2cccc(F)c2C)c(NC(=O)c2cc(F)cc(C(F)(F)F)c2)c1 [I-302] | 500 to 1000 | 5 to 10 | 
CNC(=O)c1cnc(Nc2cccc(F)c2OC)c(NC(=O)c2cc(F)cc(C(F)(F)F)c2)c1 [I-303] | 1000 to 10000 | 36 to 100 | 
CNC(=O)c1cnc(Nc2nc(C)cs2)c(NC(=O)c2cc(F)cc(C(F)(F)F)c2)c1 [I-304] | 1000 to 10000 | 36 to 100 | 
CNC(=O)c1cnc(Nc2nn(C)cc2Br)c(NC(=O)c2cc(F)cc(C(F)(F)F)c2)c1 [I-305] | 10000 to 100000 | 36 to 100 | 
Cc1ccccc1Nc1ncc(CNS(=O)(=O)c2ccccc2)cc1NC(=O)c1cc(F)cc(C(F)(F)F)c1 [I-307] | 100 to 500 | 1 to 5 | 
Cc1ccccc1Nc1cc(=O)[nH]cc1NC(=O)c1csc2ccccc12 [I-308] | 1000 to 10000 | 36 to 100 | 
COC(=O)Cn1cc(NC(=O)c2csc3ccccc23)c(Nc2ccccc2C)cc1=O [I-309] | 1000 to 10000 | 36 to 100 | 
Cc1ccccc1Nc1cc(=O)n(CC(=O)O)cc1NC(=O)c1csc2ccccc12 [I-310] | 10000 to 100000 | 36 to 100 | 
Cc1ccccc1Nc1ncc(C(=O)NC2C[S+]([O-])C2)cc1NC(=O)c1csc2ccccc12 (stereo not shown) [I-311] | ≤ 100 | 1 to 5 | 
CNC(=O)c1cnc(Nc2ccccc2C)c(NC(=O)c2cc(F)cc(OC(F)(F)F)c2)c1 [I-312] | 1000 to 10000 | 36 to 100 | 
CNC(=O)c1cnc(Nc2ccccc2C)c(NC(=O)c2cc(F)cc(C#N)c2)c1 [I-313] | 1000 to 10000 | 10 to 36 | 
O=C(NCCN1CCOCC1)c1cnc(N2CCOc3ccccc32)c(NC(=O)c2csc3ccccc23)c1 [I-316] | 1000 to 10000 | 36 to 100 | 
C[C@]1(O)C[C@@H](NC(=O)c2cnc(N3CCOc4ccccc43)c(NC(=O)c3csc4ccccc34)c2)C1 [I-317] | 100 to 500 | 5 to 10 | 
CC(=O)N1CC(NC(=O)c2cnc(N3CCOc4ccccc43)c(NC(=O)c3cc(F)cc(C(F)(F)F)c3)c2)C1 [I-329] | 500 to 1000 | 10 to 36 | 
Cc1ccccc1Nc1ncc(C(=O)NC2CS(=O)(=O)C2)cc1NC(=O)c1nsc2ccccc12 [I-330] | 100 to 500 | 1 to 5 | 
Cc1ccccc1Nc1ncc(C(=O)NC2C[S+]([O-])C2)cc1NC(=O)c1nsc2ccccc12 (stereo not shown) [I-331] | 100 to 500 | 1 to 5 | 
Cc1ccccc1Nc1ncc(C(=O)NC2CC(F)(F)C2)cc1NC(=O)c1nsc2ccccc12 [I-332] | 100 to 500 | 5 to 10 | 
CNC(=O)c1cnc(Nc2ncccc2C)c(NC(=O)c2csc3ccccc23)c1 [I-335] | 500 to 1000 | 10 to 36 | 

Compound | IC50 (H1047R PIK3CA enzyme) [nM] | IC50 (cells) [µM] | IC50 (H1047R PIK3CA enzyme; [1]) [nM]
CNC(=O)c1cnc(Nc2ccccc2C)c(NC(=O)c2csc3cnccc23)c1 [I-339] | 500 to 1000 | 1 to 5 | 
Cc1ccccc1Nc1cnc(C(=O)NC2CS(=O)(=O)C2)cc1NC(=O)c1cc(F)cc(C(F)(F)F)c1 [I-343] | 1000 to 10000 | < 1 | 
O=C(NC1CC(F)(F)C1)c1cnc(N2CCOc3ccccc32)c(NC(=O)c2csc3ccccc23)c1 [I-347] | 100 to 500 | 1 to 5 | 
Cc1ccccc1Nc1cc2nnc(N)n2cc1NC(=O)c1csc2ccccc12 [I-350] | 1000 to 10000 | 1 to 5 | 
Cc1ccccc1Nc1ncc(C(=O)NC2(C)CS(=O)(=O)C2)cc1NC(=O)c1csc2ccccc12 [I-361] | 100 to 500 | 1 to 5 | 
CNC(=O)c1cnc(Nc2ccccc2Cl)c(NC(=O)c2csc3ccccc23)c1 [I-362] | ≤ 100 | 10 to 36 | 
Cc1cc(Cn2cc(NC(=O)c3csc4ccccc34)c(Nc3ccccc3C)cc2=O)no1 [I-390] | 100 to 500 | 10 to 36 | 
Cc1ccccc1Nc1ncc(C(=O)N[C@H]2C[C@@H](O)C2)cc1NC(=O)c1cc(F)cc(C(F)(F)F)c1 [I-395] | 100 to 500 | 1 to 5 | 
O=C(Nc1cc(C(=O)N[C@H]2C[C@H](O)C2)cnc1Nc1ccccc1)c1cc(F)cc(C(F)(F)F)c1 [I-396] | 100 to 500 | 1 to 5 | 
Cc1ccccc1Nc1ncc(C(=O)N[C@H]2C[C@@H](O)C2)cc1NC(=O)c1csc2ccccc12 [I-397] | ≤ 100 | 5 to 10 | 
Cc1ccccc1Nc1ncc(C(=O)NC2CC(=O)N(Cc3ccccc3)C2)cc1NC(=O)c1csc2ccccc12 (stereo not shown) [I-398] |  | 10 to 36 | 100 to 500
Cc1ccccc1Nc1ncc(C(=O)N[C@H]2C[C@H](O)C2)cc1NC(=O)c1csc2ccccc12 [I-399] |  | 1 to 5 | ≤ 100
CNC(=O)c1cnc(Nc2ccccc2C)c(NC(=O)c2csc3c2CCOC3)c1 [I-402] |  | 10 to 36 | 1000 to 10000
CNC(=O)c1cnc(Nc2ncccc2OC)c(NC(=O)c2csc3ccccc23)c1 [I-405] |  | 36 to 100 | 10000 to 100000
CNC(=O)c1cnc(Nc2ccccc2C)c(NC(=O)c2coc3c(F)cc(F)cc23)c1 [I-406] |  | 1 to 5 | 500 to 1000
CNC(=O)c1cnc(Nc2ccccc2OC)c(NC(=O)c2csc3ccccc23)c1 [I-407] |  | 36 to 100 | 1000 to 10000
CNC(=O)c1cnc(Nc2ccccc2C)c(NC(=O)c2coc3ccc(Cl)cc23)c1 [I-408] |  | 1 to 5 | 500 to 1000
CNC(=O)c1cnc(Nc2ccccc2C)c(NC(=O)c2csc3ccc(OC)cc23)c1 [I-409] |  | 10 to 36 | 1000 to 10000
Cc1ccccc1Nc1ncc(CNC2CS(=O)(=O)C2)cc1NC(=O)c1cc(F)cc(C(F)(F)F)c1 [I-411] |  | 10 to 36 | 1000 to 10000
CNC(=S)c1cnc(Nc2ccccc2C)c(NC(=O)c2csc3ccccc23)c1 [I-412] |  | 10 to 36 | 100 to 500
Cc1ccccc1Nc1ncncc1NC(=O)c1csc2ccccc12 [I-413] |  | 10 to 36 | 1000 to 10000
CNC(=O)c1cnc(Nc2ccccc2C)c(NC(=O)c2cc3c(Cl)ccnc3[nH]2)c1 [I-424] |  | 36 to 100 | 10000 to 100000
